For 19 compounds, IC50 results are on record in patent US8420657B2 (Novartis AG, priority 2008, dated 2013).

The subject of assay [1] is JAK1/JAK2-dependent nuclear translocation of STAT1-GFP in HT1080 fibrosarcoma cells. The assay is described as follows: STAT1 nuclear translocation assay (Cellomics), IFN-γ stimulated HT1080 STAT1-GFP cells. The class given is cell-based. Particulars: Homo sapiens, HT-1080, STAT1 translocation pathway. The source says: The medium-throughput (96-well format) cellular automated fluorescence microscopy Cellomics assay can be routinely used to assess the functional activation of Janus Kinases (JAKs), based on the nuclear translocation of their substrate, Signal Transducer and Activator of Transcription (STAT). Nuclear translocation can be monitored either in HT1080 fibrosarcoma cells stably transfected with STAT1 fused to Green Fluorescence Protein (GFP) or in U-2 OS osteosarcoma cells stably transfected with STAT5 fused to Green Fluorescence Protein (GFP). Stimulation of HT1080 cells with interferon-γ (IFN-γ) results in JAK1/JAK2-dependent nuclear translocation of STAT1-GFP, whereas stimulation of U-2 OS cells with recombinant human erythropoietin (rhEpo) results in JAK2-dependent nuclear translocation of STAT5-GFP, both of which can be quantified using the Cellomics Cyto/NucTrans software package. This assay may be used to provide an assessment of the nuclear-cytoplasmic differential (NCD) of STAT-GFP using Hoechst dye to define the boundaries of the nucleus.
HT1080 fibrosarcoma cells may be obtained from ATCC and can be cultured in alpha Modified Eagle Medium with 10% FCS. Cells can be transfected with pEGFP-N2 STAT1 using Fugene 6 Transfection Reagent following the manufacturers' protocol. 24 hours after transfection the medium can be replaced and selected in 1 mg/ml Geneticin.
Compounds can be dissolved in DMSO to a final stock concentration of 10 mM and stored as aliquots at 4° C. Compounds may be pre-diluted in 100% DMSO at 10 mM, 3 mM 1 mM, 0.3 mM, 0.1 mM, 0.03 mM, 0.01 mM and 0.003 mM. Subsequently, compounds may be diluted in medium and added in 50 μl to the cells. The final compound concentrations tested may be 10 μM, 3 μM 1 μM, 0.3 μM, 0.1 μM, 0.03 μM, 0.01 μM and 0.003 μM and the final DMSO concentration can be 0.1%.
HT1080 STAT1-GFP cells may be seeded at a density of 10,000 cells per well in clear-bottom black 96-well Packard View-Plates™. 16-24 hours later, the cells can be treated for 2 hours with 100 ng/ml IFN-γ, washed twice in pre-warmed PBS and fixed in 200 μl of pre-warmed fixation solution (PBS, 3.7% Formaldehyde) for 10 minutes. The plates may be washed twice in 200 μl PBS and incubated, protected from light, in 100 μl of DNA-staining solution (PBS, 0.5 μg/ml Hoechst-33342) for 1 minute. The plates may then be washed once in PBS, and 200 μl PBS finally added per well. The plates, being finally covered with a black adhesive, may be either read directly or stored at 4° C. for later imaging. Where appropriate, the compounds may be added 30 min before stimulation with IFN-γ.
The plates can be read on a Cellomics® ArrayscanII automated fluorescence microscope plate reader equipped with a Mercury-Xenon white light illumination source and a Zeiss Axiovert inverted microscope, using the XF100 dichroic/emission filter cube and matching excitation filters, 10× magnification, and a 0.3 numerical aperture objective. Image acquisition and analysis can be performed using a customized protocol based on the ‘NuclearTranslocation’ Bioapplication. For each well, multiple images (fields) can be acquired until a minimum of 1000 cells are counted using two 2 channels: Channel 1 (Hoechst)=focus+nuclear mask, Channel 2 (GFP)=signal quantification in mask areas as outlined below. Nuclei may be first identified based on the Hoechst staining and a mask generated for each nucleus that then serves as a template to generate a circle (eroded inwards by 1 pixel) and a 3 pixel-wide collar-like ring (off-set outwards by 1 pixel), in which the nuclear and cytoplasmic intensity of GFP, respectively, are quantified in the corresponding channel. High content analysis yields numerous measurements per cell and the GFP intensity differential between the nuclear and the cytoplasmic masks may be chosen as a measure of sub-cellular STAT-GFP relocation. The resulting values may be averaged for all cells in the well to return a single measurement plus standard deviation. […]

The target in another assay is T1, GST-JAK2(808-1132) (Homo sapiens, UniProt O60674).
T1 construct: GST-JAK2(808-1132); purchased Invitrogen (Carlsbad, USA) #4288
T1 sequence (O60674 808-1132): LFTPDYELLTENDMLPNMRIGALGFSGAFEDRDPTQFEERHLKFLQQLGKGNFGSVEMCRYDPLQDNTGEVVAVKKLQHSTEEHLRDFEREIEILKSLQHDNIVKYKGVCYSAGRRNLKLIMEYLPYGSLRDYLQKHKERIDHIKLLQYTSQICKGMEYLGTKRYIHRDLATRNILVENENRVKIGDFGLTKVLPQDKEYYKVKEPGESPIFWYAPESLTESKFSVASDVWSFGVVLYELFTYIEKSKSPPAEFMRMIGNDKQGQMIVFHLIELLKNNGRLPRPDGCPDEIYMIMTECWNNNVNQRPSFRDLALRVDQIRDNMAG
The assay is described as follows: JAK2 kinase assay (Caliper mobility shift, LabChip 3000). The class given is biochemical. In outline:
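Recombinant GST-JAK2(808-1132) kinase domain with FITC-labelled JAK3tide peptide substrate and ATP; 60 min at 30 °C, EDTA stop. Substrate/product ratio read by microfluidic mobility shift; compounds at 8 final concentrations, 10 to 0.003 μM.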

As usually defined, the IC50 is the concentration that inhibits the measured activity by half.

Consider `CN(C)CCN(C)C(=O)c1ccc(Nc2ncc3ccn(-c4ccc(S(C)(=O)=O)cc4)c3n2)cc1` [Example 65, N-(2-Dimethylamino-ethyl)-4-[7-(4-methanesulfonyl-phenyl)-7H-pyrrolo[2,3-d]pyrimidin-2-ylamino]-N-methyl-benzamide], for which the IC50 stood at 99.5 nM in assay [1] and 5.4 nM on GST-JAK2(808-1132).
In the same order, the values of `O=S1(=O)CCN(Cc2c(F)cc(-n3ccc4cnc(Nc5ccc(N6CCNCC6)nc5)nc43)cc2F)CC1` [Example 444, {7-[4-(1,1-Dioxido-thiomorpholin-4-ylmethyl)-3,5-difluoro-phenyl]-7H-pyrrolo[2,3-d]pyrimidin-2-yl}-(6-piperazin-1-yl-pyridin-3-yl)-amine] are 90 nM and no more than 3 nM.
Consider `CC(C)Oc1ccc(Nc2ncc3ccn(-c4cc(F)c(CN5CCS(=O)(=O)CC5)c(F)c4)c3n2)cc1` [Example 194, {7-[4-(1,1-Dioxido-thiomorpholin-4-ylmethyl)-3,5-difluoro-phenyl]-7H-pyrrolo[2,3-d]pyrimidin-2-yl}-(4-isopropoxy-phenyl)-amine], for which the IC50 in assay [1] was 202 nM; at GST-JAK2(808-1132), less than 3 nM.
Consider `CN1CCN(C(=O)c2ccc(Nc3ncc4ccn(-c5ccc(CN6CCOCC6)c(F)c5)c4n3)cc2F)CC1` [Example 158, {2-Fluoro-4-[7-(3-fluoro-4-morpholin-4-ylmethyl-phenyl)-7H-pyrrolo[2,3-d]pyrimidin-2-ylamino]-phenyl}-(4-methyl-piperazin-1-yl)-methanone], for which the IC50 in assay [1] amounted to 265 nM; on GST-JAK2(808-1132), 9.4 nM.
In the same order, the values of `CC(C)Oc1ccc(Nc2ncc3ccn(-c4ccc(CN5CCS(=O)(=O)CC5)c(Cl)c4)c3n2)cc1` [Example 113, {7-[3-Chloro-4-(1,1-dioxido-thiomorpholin-4-ylmethyl)-phenyl]-7H-pyrrolo[2,3-d]pyrimidin-2-yl}-(4-isopropoxy-phenyl)-amine] are 108 nM and 4.2 nM.
In the same order, the values of `O=C(c1ccc(Nc2ncc3ccn(-c4cc(F)c(CN5CCOCC5)c(F)c4)c3n2)cc1)N1CCOCC1` [Example 138, {4-[7-(3,5-Difluoro-4-morpholin-4-ylmethyl-phenyl)-7H-pyrrolo[2,3-d]pyrimidin-2-ylamino]-phenyl}-morpholin-4-yl-methanone] are 165 nM and less than 3 nM.
In the same order, the values of `Cc1ccc(Nc2ncc3ccn(-c4ccc(C(=O)N5CCN(C)CC5)cc4)c3n2)cc1C` [Example 170, {4-[2-(3,4-Dimethyl-phenylamino)-pyrrolo[2,3-d]pyrimidin-7-y]-phenyl}-(4-methyl-piperazin-1-yl)-methanone] are 374 nM and 17 nM.
For the compound `Cc1cc(Nc2ncc3ccn(-c4ccc(S(C)(=O)=O)cc4)c3n2)ccc1F` [Example 81, (4-Fluoro-3-methyl-phenyl)-[7-(4-methanesulfonyl-phenyl)-7H-pyrrolo[2,3-d]pyrimidin-2-yl]-amine], the results for the IC50 (in assay [1]; on GST-JAK2(808-1132)) were 2700 nM and 18 nM, respectively.
Take `O=C1CN(Cc2ccc(Nc3ncc4ccn(-c5cc(F)c(C(=O)N6CCOCC6)c(F)c5)c4n3)cc2)CCN1` [Example 259, 4-(4-{7-[3,5-Difluoro-4-(morpholine-4-carbonyl)-phenyl]-7H-pyrrolo[2,3-d]pyrimidin-2-ylamino}-benzyl)-piperazin-2-one]: the IC50 in assay [1] is 80 nM; on GST-JAK2(808-1132) it was less than 3 nM.
As for `CCOc1ccc(Nc2ncc3cc(C)n(-c4ccc(CC(=O)N5CCN(C)CC5)cc4)c3n2)cc1OCC` [Example 167, 2-{4-[2-(3,4-Diethoxy-phenylamino)-6-methyl-pyrrolo[2,3-d]pyrimidin-7-yl]-phenyl}-1-(4-methyl-piperazin-1-yl)-ethanone], the IC50 in assay [1] is 2070 nM; on GST-JAK2(808-1132) it was 39 nM.
In the same order, the values of `CN1CCN(Cc2ccc(Nc3ncc4ccn(-c5ccc(S(C)(=O)=O)c(F)c5)c4n3)cc2)CC1` [Example 244, [7-(3-Fluoro-4-methanesulfonyl-phenyl)-7H-pyrrolo[2,3-d]pyrimidin-2-yl]-[4-(4-methyl-piperazin-1-ylmethyl)-phenyl]-amine] are 430 nM and less than 3 nM.
In the same order, the values of `CS(=O)(=O)c1ccc(-n2ccc3cnc(Nc4ccc(CN5CCOCC5)cc4)nc32)cc1` [Example 44, [7-(4-Methanesulfonyl-phenyl)-7H-pyrrolo[2,3-d]pyrimidin-2-yl]-(4-morpholin-4-ylmethyl-phenyl)-amine] are 142 nM and less than 3 nM.
In the same order, the values of `N#Cc1ccc(Nc2ncc3ccn(-c4ccc(C(=O)N5CCOCC5)cc4)c3n2)cc1` [Example 237, 4-{7-[4-(Morpholine-4-carbonyl)-phenyl]-7H-pyrrolo[2,3-d]pyrimidin-2-ylamino}-benzonitrile] are 2560 nM and 7 nM.
Take `CC(C)Oc1ccc(Nc2ncc3ccn(-c4ccc(N5CCNCC5=O)cc4)c3n2)cc1` [Example 104, 1-{4-[2-(4-Isopropoxy-phenylamino)-pyrrolo[2,3-d]pyrimidin-7-yl]-phenyl}-piperazin-2-one]: the IC50 in assay [1] worked out at 865 nM; at GST-JAK2(808-1132), 3.6 nM.
`O=C(c1ccc(Nc2ncc3ccn(-c4ccc(CN5CCS(=O)(=O)CC5)cc4)c3n2)cc1)N1CCOCC1` [Example 153, (4-{7-[4-(1,1-Dioxido-thiomorpholin-4-ylmethyl)-phenyl]-7H-pyrrolo[2,3-d]pyrimidin-2-ylamino}-phenyl)-morpholin-4-yl-methanone]: the IC50 was 17.5 nM in assay [1] and less than 3 nM on GST-JAK2(808-1132).
As for `CN(C)CCNC(=O)c1cccc(Nc2ncc3ccn(-c4ccc(S(C)(=O)=O)cc4)c3n2)c1` [Example 50, N-(2-Dimethylamino-ethyl)-3-[7-(4-methanesulfonyl-phenyl)-7H-pyrrolo[2,3-d]pyrimidin-2-ylamino]-benzamide], the concentration for half-maximal inhibition (IC50) was 184 nM in assay [1] and less than 3 nM on GST-JAK2(808-1132).
Take `CN1CCN(C(=O)c2ccc(Nc3ncc4ccn(-c5ccc(S(C)(=O)=O)cc5)c4n3)cc2C(F)(F)F)CC1` [Example 72, {4-[7-(4-Methanesulfonyl-phenyl)-7H-pyrrolo[2,3-d]pyrimidin-2-ylamino]-2-trifluoromethyl-phenyl}-(4-methyl-piperazin-1-yl)-methanone]: the values for the IC50 (in assay [1]; on GST-JAK2(808-1132)) were 750 nM and 3.7 nM, respectively.
Turning to `CCN1CCN(c2ccc(Nc3ncc4ccn(-c5ccc(CC(=O)N6CCS(=O)(=O)CC6)c(F)c5)c4n3)cc2C)CC1` [Example 292, 1-(1,1-Dioxido-thiomorpholin-4-yl)-2-(4-{2-[4-(4-ethyl-piperazin-1-yl)-3-methyl-phenylamino]-pyrrolo[2,3-d]pyrimidin-7-yl}-2-fluoro-phenyl)-ethanone], the IC50 in assay [1] was 12.5 nM; at GST-JAK2(808-1132) it was less than 3 nM.
The like results for `CC(=O)c1ccc(-n2ccc3cnc(Nc4ccc(F)cc4)nc32)cc1` [Example 60, 1-{4-[2-(4-Fluoro-phenylamino)-pyrrolo[2,3-d]pyrimidin-7-yl]-phenyl}-ethanone] were, in that order, 4080 nM and 8.1 nM.
